Each compound was assayed against CB1 (CNR1) (Homo sapiens, UniProt P21554) (assay: cAMP CNR1 Hunter cell line antagonist assay (CB1 assay)). Conditions: antagonist mode, cAMP CNR1 Hunter cells, EC80 agonist; read-out: CB1 assay, Efficacy (IC50).
Type: cell-based
Method: cAMP CNR1 Hunter cell line (Eurofins DiscoveryX) were expanded from freezer stocks and seeded in a total volume of 20 μL into white walled, 384-well microplates and incubated at 37° C. for the appropriate time prior to testing. For antagonist determination, cell media was aspirated from cells and replaced with 10 μL 1:1 HBSS/Hepes:cAMP XS+Ab reagent. 5 μL of 4× compound was added to the cells and incubated at 37° C. for 30 minutes. 5 μL of 4× EC80 agonist was added to cells and incubated at 37° C. for 30 minutes. After appropriate compound incubation, assay signal was generated through incubation with 20 μL cAMP XS+ED/CL lysis cocktail for one hour followed by incubation with 20 μL cAMP XS+EA reagent for three hours at room temperature. Microplates were read following signal generation with a PerkinElmer Envision™ instrument for chemiluminescent signal detection. Compound activity (IC50) was analyzed using CBIS data analysis suite (ChemInnovation, CA).

Chain of CB1 (CNR1) (P21554 whole entry): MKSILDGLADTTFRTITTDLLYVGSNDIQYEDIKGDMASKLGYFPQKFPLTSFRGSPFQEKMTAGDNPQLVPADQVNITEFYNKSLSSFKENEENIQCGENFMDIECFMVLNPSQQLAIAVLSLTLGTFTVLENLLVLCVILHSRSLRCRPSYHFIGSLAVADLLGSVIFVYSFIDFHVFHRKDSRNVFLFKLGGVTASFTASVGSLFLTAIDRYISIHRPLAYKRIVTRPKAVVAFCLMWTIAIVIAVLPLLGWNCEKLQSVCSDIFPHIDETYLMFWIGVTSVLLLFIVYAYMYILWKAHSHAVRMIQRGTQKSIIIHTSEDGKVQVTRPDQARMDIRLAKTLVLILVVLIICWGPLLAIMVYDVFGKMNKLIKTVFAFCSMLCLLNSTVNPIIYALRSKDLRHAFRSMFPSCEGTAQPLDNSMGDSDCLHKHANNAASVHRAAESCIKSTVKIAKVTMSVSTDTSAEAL

IC50	SMILES
≥ 25 µM	CCC1Oc2c(cc(Cl)cc2S(=O)(=O)Nc2ccc(OC)c(Cl)c2)NC1=O (stereo not drawn) [BC19744]
≥ 25 µM	CCC1Oc2cc(S(=O)(=O)NCc3ccc(F)cc3F)c(Br)cc2NC1=O (stereo not drawn) [BC19368]
1 to 25 µM	O=C1NCCOc2c1cc(Br)cc2S(=O)(=O)Nc1cccc(F)c1 [BC19610]
≥ 25 µM	CCS(=O)(=O)c1cc2c(c(S(=O)(=O)Nc3ccc(OC(F)(F)F)cc3)c1)OCC(=O)N2 [BC19435]
≥ 25 µM	CCc1cccc(NS(=O)(=O)c2cc(S(=O)(=O)CC)cc3c2OCC(=O)N3)c1 [BC19439]
1 to 25 µM	CC(C)CC1Oc2cc(S(=O)(=O)Nc3ccc(F)c(F)c3)c(Br)cc2NC1=O (stereo not drawn) [BC19760]
1 to 25 µM	CCC1Oc2c(cc(Cl)cc2S(=O)(=O)Nc2ccc(F)cc2Cl)NC1=O (stereo not drawn) [BC19756]
≥ 25 µM	O=C1NCCOc2c1cc(Br)cc2S(=O)(=O)Nc1ccc(Cl)cc1 [BC19603]
≥ 25 µM	COc1ccc(NS(=O)(=O)c2cc(S(C)(=O)=O)cc3c2OCC(=O)N3)cc1 [BC19485]
≥ 25 µM	Cc1ccc(NS(=O)(=O)c2cc3c(cc2Br)N(C)C(=O)C(C)O3)cc1F (stereo not drawn) [BC19786]
≥ 25 µM	CCC1Oc2c(cc(Br)cc2S(=O)(=O)Nc2ccc(Cl)cc2)NC1=O (stereo not drawn) [BC19290]
≥ 25 µM	CCc1cccc(NS(=O)(=O)c2cc3c(cc2Br)NC(=O)CCO3)c1 [BC19657]
≥ 25 µM	CC1Oc2cc(S(=O)(=O)N3CCOCC3)c(Br)cc2NC1=O (stereo not drawn) [BC19217]
≥ 25 µM	CCC1Oc2cc(S(=O)(=O)Nc3ccc(OC(F)(F)F)cc3)c(Br)cc2N(C)C1=O (stereo not drawn) [BC19922]
≥ 25 µM	CCc1cccc(NS(=O)(=O)c2cc(S(C)(=O)=O)cc3c2OCC(=O)N3)c1 [BC19487]
≥ 25 µM	CC1Oc2cc(S(=O)(=O)Nc3ccc(C(C)C)cc3)c(Cl)cc2NC1=O (stereo not drawn) [BC19704]
≥ 25 µM	Cc1ccc(NS(=O)(=O)c2cc(Br)cc3c2OC(C)C(=O)N3)cc1Cl (stereo not drawn) [BC19225]
≥ 25 µM	CCCNS(=O)(=O)c1cc2c(cc1Cl)NC(=O)C(CC)O2 (stereo not drawn) [BC19214]
≥ 25 µM	Cc1ccc(NS(=O)(=O)c2cc3c(cc2Br)N(C)C(=O)C(C)O3)cc1 (stereo not drawn) [BC19912]
< 1 µM	COc1ccc(NS(=O)(=O)c2cc3c(cc2Br)NC(=O)CCO3)cc1 [BC19692]
≥ 25 µM	CCC1Oc2c(cc(Br)cc2S(=O)(=O)Nc2ccc(C)cc2)NC1=O (stereo not drawn) [BC19234]
1 to 25 µM	CCC1Oc2cc(S(=O)(=O)Nc3ccc(F)cc3F)c(Cl)cc2NC1=O (stereo not drawn) [BC19747]

IC50	SMILES
≥ 25 µM	O=C1CCOc2cc(S(=O)(=O)Nc3ccc(F)cc3Cl)c(Br)cc2N1 [BC19658]
≥ 25 µM	CCS(=O)(=O)c1cc2c(c(S(=O)(=O)Nc3ccc(F)c(F)c3)c1)OCC(=O)N2 [BC19421]
1 to 25 µM	O=C1COc2c(cc(Br)cc2S(=O)(=O)NCc2ccc(C(F)(F)F)cc2)N1 [BC19382]
≥ 25 µM	Cc1ccc(NS(=O)(=O)c2cc(Br)cc3c2OC(C)C(=O)N3C)cc1 (stereo not drawn) [BC19906]
1 to 25 µM	CC(C)CC1Oc2c(cc(Br)cc2S(=O)(=O)Nc2cccc(F)c2)NC1=O (stereo not drawn) [BC19773]
< 1 µM	O=C1COc2cc(S(=O)(=O)Nc3ccc(OC(F)(F)F)cc3)c(Cl)cc2N1 [BC19164]
≥ 25 µM	CCC1Oc2c(cc(Cl)cc2S(=O)(=O)Nc2ccc(F)cc2F)NC1=O (stereo not drawn) [BC19748]
≥ 25 µM	CC1Oc2c(cc(Br)cc2S(=O)(=O)Nc2ccc(F)c(F)c2)N(C)C1=O (stereo not drawn) [BC19787]
1 to 25 µM	CCc1ccc(NS(=O)(=O)c2cc(Br)cc3c2OC(CC(C)C)C(=O)N3)cc1 (stereo not drawn) [BC19763]
< 1 µM	CCC1Oc2cc(S(=O)(=O)Nc3ccc(C(C)C)cc3)c(Cl)cc2NC1=O (stereo not drawn) [BC19210]
≥ 25 µM	CCC1Oc2c(cc(Br)cc2S(=O)(=O)Nc2ccc(OC)cc2)N(C)C1=O (stereo not drawn) [BC19935]
≥ 25 µM	CC(C)c1ccc(NS(=O)(=O)c2cc(Cl)cc3c2OCC(=O)N3)cc1 [BC19174]
1 to 25 µM	CCc1cccc(NS(=O)(=O)c2cc3c(cc2Br)N(C)C(=O)C(CC)O3)c1 (stereo not drawn) [BC19916]
≥ 25 µM	CC(C)CC1Oc2cc(S(=O)(=O)Nc3ccccc3)c(Br)cc2NC1=O (stereo not drawn) [BC19762]
≥ 25 µM	CC1Oc2c(cc(Br)cc2S(=O)(=O)N2CCOCC2)NC1=O (stereo not drawn) [BC19226]
1 to 25 µM	CC1Oc2c(cc(Cl)cc2S(=O)(=O)Nc2ccc(C#N)cc2)NC1=O (stereo not drawn) [BC19730]
< 1 µM	CCC1Oc2c(cc(Cl)cc2S(=O)(=O)Nc2ccccc2)NC1=O (stereo not drawn) [BC19738]
1 to 25 µM	CCc1ccc(NS(=O)(=O)c2cc(Br)cc3c2OCCNC3=O)cc1 [BC19604]
1 to 25 µM	CCc1cccc(NS(=O)(=O)c2cc(Br)cc3c2OCCNC3=O)c1 [BC19609]
≥ 25 µM	Cc1ccc(NS(=O)(=O)c2cc3c(cc2Cl)NC(=O)C(C)O3)cc1Cl (stereo not drawn) [BC19708]
≥ 25 µM	CCC1Oc2c(cc(Br)cc2S(=O)(=O)NCc2ccc(C(F)(F)F)cc2)NC1=O (stereo not drawn) [BC19377]
≥ 25 µM	O=C1NCCOc2c1cc(Br)cc2S(=O)(=O)Nc1ccc(F)c(F)c1 [BC19551]

IC50	SMILES
≥ 25 µM	Cc1c(Cl)cc2c(c1S(=O)(=O)Nc1ccc(F)c(F)c1)OCC(=O)N2 [BC19489]
1 to 25 µM	CCC1Oc2cc(S(=O)(=O)Nc3ccc(F)cc3Cl)c(Cl)cc2NC1=O (stereo not drawn) [BC19755]
1 to 25 µM	CC1Oc2cc(S(=O)(=O)Nc3ccc(C#N)cc3)c(Br)cc2N(C)C1=O (stereo not drawn) [BC19920]
≥ 25 µM	CC1Oc2cc(S(=O)(=O)Nc3ccc(C(C)C)cc3)c(Br)cc2N(C)C1=O (stereo not drawn) [BC19794]
≥ 25 µM	CCS(=O)(=O)c1cc2c(c(S(=O)(=O)Nc3ccc(F)cc3)c1)OCC(=O)N2 [BC19443]
≥ 25 µM	CCC1Oc2cc(S(=O)(=O)Nc3ccc(C(C)C)cc3)c(Br)cc2N(C)C1=O (stereo not drawn) [BC19934]
≥ 25 µM	CS(=O)(=O)c1cc2c(c(S(=O)(=O)Nc3ccc(F)cc3Cl)c1)OCC(=O)N2 [BC19428]
1 to 25 µM	COc1ccc(NS(=O)(=O)c2cc(Br)cc3c2OCC(=O)N3)cc1Cl [BC19171]
≥ 25 µM	CCc1cccc(NS(=O)(=O)c2cc(Br)cc3c2OCC(=O)N3)c1 [BC19180]
1 to 25 µM	CCOc1ccc(NS(=O)(=O)c2cc(Cl)cc3c2OC(C)C(=O)N3)cc1 (stereo not drawn) [BC19355]
≥ 25 µM	Cc1ccc(NS(=O)(=O)c2cc(S(C)(=O)=O)cc3c2OCC(=O)N3)cc1Cl [BC19486]
1 to 25 µM	O=C1COc2c(cc(Br)cc2S(=O)(=O)Nc2ccc(F)c(F)c2)N1 [BC19177]
≥ 25 µM	CS(=O)(=O)c1cc2c(c(S(=O)(=O)Nc3ccccc3)c1)OCC(=O)N2 [BC19482]
≥ 25 µM	CCC1Oc2cc(S(=O)(=O)NCc3ccc(OC(F)(F)F)cc3)c(Br)cc2NC1=O (stereo not drawn) [BC19369]
≥ 25 µM	CC1Oc2c(cc(Cl)cc2S(=O)(=O)Nc2ccc(Cl)cc2)NC1=O (stereo not drawn) [BC19697]
≥ 25 µM	CCc1cccc(NS(=O)(=O)c2cc(Cl)cc3c2OC(C)C(=O)N3)c1 (stereo not drawn) [BC19712]
1 to 25 µM	O=C(O)c1cc2c(c(NS(=O)(=O)c3ccc(F)c(F)c3)c1)N1CCCC1C(=O)N2 (stereo not drawn) [BC19917]
≥ 25 µM	CC(C)CC1Oc2cc(S(=O)(=O)Nc3ccc(F)cc3Cl)c(Br)cc2NC1=O (stereo not drawn) [BC19778]
≥ 25 µM	Cc1ccc(NS(=O)(=O)c2cc3c(cc2Cl)NC(=O)C(C)O3)cc1 (stereo not drawn) [BC19717]
< 1 µM	CCc1ccc(NS(=O)(=O)c2cc3c(cc2Br)NC(=O)C(C)O3)cc1 (stereo not drawn) [BC19216]
< 1 µM	O=C1COc2cc(S(=O)(=O)Nc3ccc(Cl)cc3)c(Cl)cc2N1 [BC19133]
≥ 25 µM	CC(C)CC1Oc2cc(S(=O)(=O)Nc3cccc(F)c3)c(Br)cc2NC1=O (stereo not drawn) [BC19774]
